{"source": "paper PMC9128668", "about": "(Nature, 2021)", "target": "T1, BT1622^3S-Gal/GalNAc (Bacteroides thetaiotaomicron, UniProt Q8A7A3)", "T1 sequence (Q8A7A3 21-500)": "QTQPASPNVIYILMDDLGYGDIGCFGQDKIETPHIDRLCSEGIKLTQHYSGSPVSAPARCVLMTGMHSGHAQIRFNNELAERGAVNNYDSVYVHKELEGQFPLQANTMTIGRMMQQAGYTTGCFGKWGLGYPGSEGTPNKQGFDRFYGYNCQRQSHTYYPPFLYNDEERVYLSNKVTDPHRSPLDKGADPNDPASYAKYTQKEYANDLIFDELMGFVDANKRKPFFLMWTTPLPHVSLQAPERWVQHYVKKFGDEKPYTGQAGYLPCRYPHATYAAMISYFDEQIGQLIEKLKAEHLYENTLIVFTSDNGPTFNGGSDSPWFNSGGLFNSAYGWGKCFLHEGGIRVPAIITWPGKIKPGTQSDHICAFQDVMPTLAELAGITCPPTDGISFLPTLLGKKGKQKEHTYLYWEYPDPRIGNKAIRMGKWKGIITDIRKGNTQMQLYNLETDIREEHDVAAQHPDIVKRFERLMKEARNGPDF", "experiment": "X-ray crystallography", "type": "binding", "settings": "active site; Ca2+; inactive Ser form; 100 mM ligand"}
{"smiles": "CC(=O)N[C@H]1C(O)O[C@H](CO)[C@H](O)[C@@H]1O", "note": "(stereo partly shown) [GalNAc]", "values": [{"measurement": "X-ray crystallography", "value": "BT1622^3S-Gal/GalNAc in complex with GalNAc"}]}
